Experiment: High fat diet induced obesity (DIO) mouse model
Format: in vivo, C57CL/6J mice
Settings: for Total Body Weight / Body Weight: in g (unit assumed)
Protocol: C57CL/6J mice aged 4-6 weeks (Korea Research Institute of Bioscience & Biotechnology, Ohchang, Korea) were housed in Polycarbonate cages (five mice per cage) in a room with a 12 hr:12 hr light-dark cycle and an ambient temperature of 24° C. All the mice were fed a commercial chow diet for 1 week after arrival in the animal facility. Mice were then divided into normal and obesity groups and fed with normal diet (ND) and high fat diets (HFD) respectively. The HFD group was divided into multiple treatment groups: a high fat diet vehicle group (HFD), an orlistat (purchased as OTC drug Alli®) positive control treatment group (ORI, 40 mg/kg of animal weight, 2 times/day) and optionally a sibutramine positive control treatment group (10 mg/kg, 1 time/day). The HFD contained 340 g of fat/kg of HFD (310 g lard plus 30 g soybean oil; Harlan Laboratories, USA). The HFD was formulated to provide 60% of the total energy generated by the diet from fat by replacing carbohydrate energy with lard and soybean oil, whereas the normal diet (ND) group was fed a diet providing only 18% of the total diet energy from fat(Harlan Laboratories, USA).
Body weight was measured once each week and feed intake was measured twice per week. At the end of the experimental period, following a 12 hr. fasting period, the animals were anesthetized with ether, and blood was drawn from the abdominal vein. Liver and kidney and adipose tissues (epididymal, retroperitoneal, perirenal adipose tissues) were removed from each animal, rinsed with physiological saline, and weighed. Serum concentrations of glucose, total cholesterol, triglycerides, and LDL-cholesterol were determined using automatic analyzer (INTEGRA 400, Roche, Germany). Statistical significance of test results was measured using the Student's t-test.

[1] = week 3, mice fed a high fat diet, Mutamba fractions 250 mg/kg oral 2 times per day, mean
[2] = week 4, DIO mice, oral twice daily, mg/kg/day: ORI 40, Combo (Composition 1A) 800, Magnolia 100, Yerba Mate 500, Morus 200
[3] = week 4, DIO mice, combination (5:1) 1200 mg/kg twice a day by gavage, group mean
[4] = week 4, mice fed a high fat diet, Mutamba fractions 250 mg/kg oral 2 times per day, mean
[5] = week 5, DIO mice, oral twice daily, mg/kg/day: ORI 40, Combo (Composition 1A) 800, Magnolia 100, Yerba Mate 500, Morus 200
[6] = week 5, DIO mice, combination (5:1) 1200 mg/kg twice a day by gavage, group mean
[7] = week 5, mice fed a high fat diet, Mutamba fractions 250 mg/kg oral 2 times per day, mean
[8] = week 6, DIO mice, oral twice daily, mg/kg/day: ORI 40, Combo (Composition 1A) 800, Magnolia 100, Yerba Mate 500, Morus 200
[9] = week 6, DIO mice, combination (5:1) 1200 mg/kg twice a day by gavage, group mean
[10] = week 6, mice fed a high fat diet, Mutamba fractions 250 mg/kg oral 2 times per day, mean
[11] = week 7, DIO mice, oral twice daily, mg/kg/day: ORI 40, Combo (Composition 1A) 800, Magnolia 100, Yerba Mate 500, Morus 200
[12] = week 7, DIO mice, combination (5:1) 1200 mg/kg twice a day by gavage, group mean
[13] = week 7, mice fed a high fat diet, Mutamba fractions 250 mg/kg oral 2 times per day, mean
[14] = week 8, DIO mice, oral twice daily, mg/kg/day: ORI 40, Combo (Composition 1A) 800, Magnolia 100, Yerba Mate 500, Morus 200
[15] = week 8, mice fed a high fat diet, Mutamba fractions 250 mg/kg oral 2 times per day, mean

## CCCCCCCCCCC[C@@H](C[C@@H]1OC(=O)[C@H]1CCCCCC)OC(=O)[C@H](CC(C)C)NC=O [ORI, orlistat]
Week 3, DIO mice, combination (5:1) 1200 mg/kg twice a day by gavage, group mean
  Total Body Weight: 35.12
Week 3, ORI 40 mg/kg, DIO mice (Table 52)
  Total Body Weight: 37.41
Week 3, ORI 40 mg/kg, DIO mice
  Total Body Weight: 35.66
Week 3, ORI 40 mg/kg, mice fed high fat diet
  Body Weight Gain: −6.70
[1]
  Body Weight Gain: −2.63
  Body Weight: 37.14
Week 3, orlistat 40 mg/kg oral
  Weight Gain: −5.27
[2]
  Weight Gain: −3.84
  Total Body Weight: 36.38
Week 4, DIO mice, SIB 10 mg/kg, ORI 40 mg/kg, Mutamba extract 32 (G1) 1000 mg/kg/day oral, mean
  Body Weight Gain: −2.35
Week 4, DIO mice, SIB 10 mg/kg, ORI 40 mg/kg, Mutamba extract 33-2 G1 1000 mg/kg, mean
  Body Weight Gain: −1.28
Week 4, DIO mice, combination (1:1) 2000 mg/kg twice a day, group mean
  Weight Gain: −2.61
[3]
  Weight Gain: −2.61
  Total Body Weight: 35.84
Week 4, ORI 40 mg/kg, DIO mice (Table 52)
  Total Body Weight: 37.60
Week 4, ORI 40 mg/kg, DIO mice
  Total Body Weight: 37.28
Week 4, ORI 40 mg/kg, mice fed high fat diet
  Body Weight Gain: −5.01
[4]
  Body Weight Gain: −1.28
  Body Weight: 38.49
Week 4, orlistat 40 mg/kg oral
  Weight Gain: −3.47
[5]
  Weight Gain: −2.57
  Total Body Weight: 37.65
Week 5, DIO mice, SIB 10 mg/kg, ORI 40 mg/kg, Mutamba extract 32 (G1) 1000 mg/kg/day oral, mean
  Body Weight Gain: −1.84
Week 5, DIO mice, SIB 10 mg/kg, ORI 40 mg/kg, Mutamba extract 33-2 G1 1000 mg/kg, mean
  Body Weight Gain: 0.43
Week 5, DIO mice, combination (1:1) 2000 mg/kg twice a day, group mean
  Weight Gain: −2.04
[6]
  Weight Gain: −2.04
  Total Body Weight: 36.41
Week 5, ORI 40 mg/kg, DIO mice (Table 52)
  Total Body Weight: 38.12
Week 5, ORI 40 mg/kg, DIO mice
  Total Body Weight: 38.57
Week 5, ORI 40 mg/kg, mice fed high fat diet
  Body Weight Gain: −3.81
[7]
  Body Weight Gain: 0.43
  Body Weight: 40.19
Week 5, orlistat 40 mg/kg oral
  Weight Gain: −2.34
[8]
  Weight Gain: −1.47
  Total Body Weight: 38.75
Week 6, DIO mice, SIB 10 mg/kg, ORI 40 mg/kg, Mutamba extract 32 (G1) 1000 mg/kg/day oral, mean
  Body Weight Gain: 0.08
Week 6, DIO mice, SIB 10 mg/kg, ORI 40 mg/kg, Mutamba extract 33-2 G1 1000 mg/kg, mean
  Body Weight Gain: 3.52
Week 6, DIO mice, combination (1:1) 2000 mg/kg twice a day, group mean
  Weight Gain: −1.65
[9]
  Weight Gain: −1.65
  Total Body Weight: 36.80
Week 6, ORI 40 mg/kg, DIO mice (Table 52)
  Total Body Weight: 40.04
Week 6, ORI 40 mg/kg, DIO mice
  Total Body Weight: 40.03
Week 6, ORI 40 mg/kg, mice fed high fat diet
  Body Weight Gain: −2.36
[10]
  Body Weight Gain: 3.52
  Body Weight: 43.28
Week 6, orlistat 40 mg/kg oral
  Weight Gain: −1.08
[11]
  Weight Gain: −0.26
  Total Body Weight: 39.96
Week 7, DIO mice, SIB 10 mg/kg, ORI 40 mg/kg, Mutamba extract 32 (G1) 1000 mg/kg/day oral, mean
  Body Weight Gain: 1.81
Week 7, DIO mice, SIB 10 mg/kg, ORI 40 mg/kg, Mutamba extract 33-2 G1 1000 mg/kg, mean
  Body Weight Gain: 3.72
[12]
  Weight Gain: −0.07
  Total Body Weight: 38.38
Week 7, ORI 40 mg/kg, DIO mice (Table 52)
  Total Body Weight: 41.77
Week 7, ORI 40 mg/kg, DIO mice
  Total Body Weight: 40.91
Week 7, ORI 40 mg/kg, mice fed high fat diet
  Body Weight Gain: −1.42
[13]
  Body Weight Gain: 3.72
  Body Weight: 43.49
Week 7, orlistat 40 mg/kg oral
  Weight Gain: 0.02
[14]
  Weight Gain: −0.23
  Total Body Weight: 39.99
Week 8, DIO mice, SIB 10 mg/kg, ORI 40 mg/kg, Mutamba extract 32 (G1) 1000 mg/kg/day oral, mean
  Body Weight Gain: 2.10
Week 8, DIO mice, SIB 10 mg/kg, ORI 40 mg/kg, Mutamba extract 33-2 G1 1000 mg/kg, mean
  Body Weight Gain: 5.13
Week 8, ORI 40 mg/kg, DIO mice (Table 52)
  Total Body Weight: 42.06
[15]
  Body Weight Gain: 5.13
  Body Weight: 44.90

From US20240024403A1, “Compositions and Methods for Managing Weight” (Unigen, Inc., priority 2012, published 2024)
